Measurements published in a melting point compilation (Tetko et al.; mined from patent text by program, amines drawn as free bases though some values may be those of a salt).

SMILES	melting point [°C]
C=CCOc1ccc(Cl)c2c(=O)c3ccccc3sc12	135 to 136
O=C1N(c2ccc(Cl)cc2Cl)Cc2cnc(Nc3ccccc3)nc2N1c1ccc(CO)cc1	121 to 125
CC1=CC(O)C(OC(=O)c2ccccc2)C(C)(C)CC1=O (stereo unspecified)	99 to 100
CS(=O)(=O)Oc1cccc2c1C(=O)OC2=O	134 to 140
BrCc1ccc2c(-c3ccccc3)onc2c1	127 to 128
CN(C)C(=O)CCCCC(=O)O	80
CC1CC2(OC3CC4C5CCC6CC(O)CCC6(C)C5C(=O)CC4(C)C3C2(C)O)OC1(C)C (stereo unspecified)	206 to 208
N#Cc1ccccc1C(F)(F)C(F)(F)c1ccc(F)cc1	90 to 93
CCOC(=O)Nc1nc(-c2ccccc2)c(-c2nc3ccccc3c(=O)n2-c2cccc(C)c2)s1	261 to 263
Clc1cccc(N2CCN(Cc3ccc(-c4ccccc4)s3)CC2)c1	115
CCOCCNC(=O)c1ccc(-c2ccc(C(CC3CCOCC3)c3ccc(S(=O)(=O)C4CC4)cc3)[nH]2)nc1 (stereo unspecified)	87 to 90
CCCN(CCC)Cc1nnc(-c2ncn3c2[C@@H]2CCN2C(=O)c2c(Cl)cccc2-3)o1	134 to 136
O=C(Nc1ccc2ncnc(Nc3cc(Cl)c(Cl)cc3F)c2c1)C(Cl)Cl	> 300
O=C(NCc1ccc(Cl)cc1)c1cn2c(CO)cc3cccc(c1=O)c32	211 to 213
Cc1nc(N2N=C(c3ccc([N+](=O)[O-])cc3)c3cc4c(cc3CC2C)OCO4)cs1 (stereo unspecified)	178 to 190
COC(=O)CCc1cc2cc(C(F)(F)F)ccc2n1S(=O)(=O)c1ccc2nc(N)sc2c1	135 to 136
Cc1c(-c2ccc(F)cc2)c(-c2ccc(S(N)(=O)=O)cc2)c2n1CCC2	120
O=C1[C@H](O)CCN1CC#CCN1CCCC1	81 to 85
O=S1(=O)NCN(C2CC2)c2c(Cl)cccc21	142 to 143
Clc1ccc(Nc2nc3ccccc3c3[nH]c(C4CCCCC4)nc23)cc1Cl	237 to 240
COC(=O)COc1ccc2cc(CNC(=O)c3cnn(-c4ccc(Cl)cc4)c3C(F)(F)F)ccc2c1	174 to 176
CCOC(=O)C1(S(=O)(=O)c2ccc(OCc3ccccc3)cc2)CCN(Cc2ccccc2)CC1	89
OC1CN2[C@H]3CC[C@@H]2[C@@H]1[C@@H](c1ccc(Cl)c(Cl)c1)C3 (stereo partly specified)	156 to 158
Cc1c(F)c(Oc2cccnc2)nc(Oc2cccc(C(=N)N)c2)c1F	213 to 214

SMILES	melting point [°C]
CC1(C)Oc2ccc(C#N)cc2[C@@H](NC(=O)Nc2ccc3c(c2)CN(C(=O)OCC(Cl)(Cl)Cl)C3)[C@@H]1O	201 to 203
CCOC(=O)Nc1c(Cl)cccc1[Si](C)(C)C	109 to 110
CCCc1cc(=O)n(-c2cc(C(=O)OC(C)C)c(Cl)cc2F)c(=O)[nH]1	192 to 193
CCC(=O)N1N=C(c2ccc([N+](=O)[O-])cc2)c2cc(Br)ccc2CC1C (stereo unspecified)	178 to 180
COc1ncnc(OC)c1NC(=O)CCl	193 to 195
O=C(O)COc1c(Br)cc(-c2ccc(-c3c(Cc4ccccc4)sc4ccccc34)cc2)cc1Br	183 to 185
O=C(COc1cc(-c2ccccc2F)nc2ccccc12)N1CCOCC1	145
Cc1nnc2n1-c1sc(Cl)cc1C(c1ccccc1[N+](=O)[O-])=NC2	210 to 212
O=c1cc(Oc2cccc(OCc3ccccc3)c2)c2ccccc2[nH]1	262 to 265
CN(C)c1ccc(CNC(=O)CNC(=O)Nc2ccc(C(=N)N)cc2)cc1	209 to 214
CCOC(=O)c1cc(NCc2ccccc2)c(Nc2ccccc2)c(S(N)(=O)=O)c1	160 to 161
NC1=Nc2ccc(OC(F)(F)F)cc2CS1	115 to 118
Clc1ccc(N2CCN(Cc3n[nH]c4c(Cl)cccc34)CC2)nc1	150 to 152
CC(C)(C)C(O)(CC(Br)=CBr)Cn1cncn1 (stereo unspecified)	81
CCCC(=O)Nc1n[nH]c2cc(-c3ccncc3)ccc12	200
Nc1nc(Cl)c(NC=O)c(N[C@@H]2CC=C(CO)C2)n1	148 to 150
CCOC(OCC)N1C(=O)C2(CCCCC2)c2cc(-c3cc(F)cc(C#N)c3)ccc21	146
CC(C)Sc1ccc2c(c1)NC(=O)C2	99 to 102
ClCCN(CCCl)CCOc1cccc2c(Cl)c3ccccc3nc12	105 to 106
CCOC(=O)C(C(=O)NCc1ccccc1)=C1SC=CS1	79 to 81
CSc1sc(C(=O)N(C)C)c2c1C(=O)CC(C)(C)C2	135 to 136
COc1ccc2c(c1)C(CCNC(C)=O)C1(CC2)Cc2ccccc2C1 (stereo unspecified)	139 to 141
COC(=O)C(CCON1C(=O)c2ccccc2C1=O)NC(=O)Cc1ccccc1 (stereo unspecified)	138 to 139
c1ccc(N(Cc2ccc(OCOc3ccc(CN(c4ccccc4)c4ccccc4)cc3)cc2)c2ccccc2)cc1	99 to 100

SMILES	melting point [°C]
O=c1[nH]c(=O)n(CCCCBr)c2ccc(Cl)cc12	154 to 156
Cc1cc(C)cc(-n2ncc(C(=O)O)c2C(N)=O)c1	223 to 225
CCCCN(CCCC)C(=O)CCCC1(C(=O)NCCC)c2ccccc2-c2ccccc21	109 to 111
CN(C)C(=O)c1cc2n(c1)CCc1ccccc1C2=O	148 to 150
Cc1cc(C)c2c(c1C)OC1(CCN(Cc3ccccc3)CC1)C2c1ccc(C(C)C)cc1 (stereo unspecified)	125 to 128
CCCCCCCCCCc1nc(N(C)C)nc(C)c1O	71 to 72
CC(C)CCc1ccc(C(=S)CC#N)cc1	62 to 63
O=C(Nc1ccccc1)Nc1cc(Cl)ccc1C(=O)O	186 to 188
O=C1N(c2ccccc2)N=C(Nc2ccccc2)C1(Br)Br	190
CCOC(=O)c1cc(=O)c(O)c(-c2ccc(O)cc2)o1	228 to 232
Cc1cnn(-c2ccc(Cl)cc2Cl)c(=O)c1Br	108
N#Cc1cnn(-c2ccc(Cl)c(Cl)c2Cl)c1N	154 to 156
CCN(CC)C(=O)Nc1ccc(S(=O)(=O)N2C(=O)C(CCCN(C)C)(c3ccccc3F)c3cc(C)c(OC)cc32)cc1F (stereo unspecified)	82
Cc1cc(C)c(-n2ccc3c(OC(C)C)nn(C)c(=O)c32)c(C)c1	108 to 111
Cn1nc(C(F)(F)F)c(C(=O)Nc2cccc3c2CCC3(C)C)c1Cl	120
COc1c(Cl)ccc(-c2nc(C(=O)Cl)cc(Cl)c2Cl)c1F	134 to 136
COc1ccc2c(c1)C(=O)C(=Cc1cccc([N+](=O)[O-])c1)CO2	157 to 159
O=C1c2ccccc2C(=O)N1C(Cc1ccccc1)C1CC(Cc2ccccc2)=NO1 (stereo unspecified)	134 to 136
O=C(Nc1ccc(N2CCOCC2)cc1)Nc1ccc(C(F)(F)F)cc1	228 to 232
C=CCn1c(NCc2cccnc2)nc(N2CCc3ccccc3CC2)c(C#N)c1=O	> 200
CC(=O)NCCNc1nc(Nc2ccc3[nH]nnc3c2)ncc1C(F)(F)F	> 300
COc1c(Cl)ccc(-c2cc(N)c(Cl)c(C(=O)NOCc3ccco3)n2)c1F	161 to 164
c1ccc2c(c1)CCN(Cc1n[nH]c3c1CCc1ccccc1-3)C2	180 to 182
